Test results from ChEMBL document CHEMBL5543135, “Design and Synthesis of Novel Macrocyclic Derivatives as Potent and Selective Cyclin-Dependent Kinase 7 Inhibitors” (J Med Chem, 2024).

Tests used:
in vitro [1] = conditions: mouse, liver microsomes
in vitro [2] = conditions: human, liver microsomes

Row | Compound | half-life at 1 h, 1 µM (in vitro [1]) [min] | half-life at 1 h, 1 µM (in vitro [2]) [min]
1 | COC1CCCC2(CCNCC2)CNc2nc(n3ncc(C(C)C)c3n2)NCc2ccccc2OC1 (centres undefined) | 27.7 | 16.9
2 | CC(C)c1cnn2c(NCc3ccccc3)cc(NC[C@H]3CCNC[C@@H]3O)nc12 [CT-7001] | 105 | > 186
